According to patent publication US20070128217A1 (priority 2003, published 2007):

Experiments:
[1] = system: rabbit serum obtained by immunizing a rabbit with the SARS-CoV strain Frankfurt 1; format: binding; design: Binding of a rabbit serum to linear peptides / Binding of a rabbit serum to looped peptides / Rabbit serum linear peptides / Rabbit serum looped peptides / Binding of a rabbit serum to linear peptides of protein N of SARS-CoV Urbani (Rabbit serum linear peptides) / Binding of a rabbit serum to looped/cyclic peptides of protein N of SARS-CoV Urbani (Rabbit serum looped peptides): unit not given here
[2] = system: antibodies in sera from SARS patients (sera 1a, 1b, 2, 6, 37, 62, London, SARS-yellow, SARS-green); format: binding, human; design: Binding of serum 6 to linear peptides of protein X1 of SARS-CoV Urbani / Binding of serum 37 to linear peptides of protein X1 of SARS-CoV Urbani / Binding of serum 6 to looped/cyclic peptide (PEPSCAN-ELISA) / Binding of serum 37 to looped/cyclic peptide (PEPSCAN-ELISA) / Binding of serum 37 to looped/cyclic peptides of protein X1 of SARS-CoV Urbani / Binding of serum 6 to linear peptides of protein X2 / Binding of serum 37 to linear peptides of protein X2 / Binding of serum 37 to looped/cyclic peptides of protein X2 of SARS-CoV Urbani / Binding of serum 6 to linear peptides of protein M of SARS-CoV Urbani / Binding of serum 37 to linear peptides of protein M of SARS-CoV Urbani / Binding of serum 6 to looped/cyclic peptides of protein M of SARS-CoV Urbani / Binding of serum 37 to looped/cyclic peptides of protein M of SARS-CoV Urbani / Binding of serum 6 to linear peptides of protein X3 of SARS-CoV Urbani / Binding of serum 37 to linear peptides of protein X3 of SARS-CoV Urbani / Binding of serum 37 to looped/cyclic peptides of protein X3 of SARS-CoV Urbani / Binding of serum 6 to linear peptides of protein X4 of SARS-CoV Urbani / Binding of serum 37 to linear peptides of protein X4 of SARS-CoV Urbani / Binding of serum 37 to looped/cyclic peptides of protein X4 of SARS-CoV Urbani / Binding of serum 6 to linear peptides of protein X5 of SARS-CoV Urbani / Binding of serum 37 to linear peptides of protein X5 of SARS-CoV Urbani / Binding of serum 37 to looped/cyclic peptides of protein X5 of SARS-CoV Urbani / Binding of serum 6 to linear peptides of protein N of SARS-CoV Urbani / Binding of serum 37 to linear peptides of protein N of SARS-CoV Urbani / Binding of serum 6 to linear peptide (PEPSCAN-ELISA) / Binding of serum 1a to looped/cyclic peptides of protein N of SARS-CoV Urbani / Binding of serum 1b to looped/cyclic peptides of protein N of SARS-CoV Urbani / Binding of serum 2 to looped/cyclic peptides of protein N of SARS-CoV Urbani / Binding of serum 6 to looped/cyclic peptides of protein N of SARS-CoV Urbani / Binding of serum 37 to looped/cyclic peptides of protein N of SARS-CoV Urbani / Binding of serum 62 to looped/cyclic peptides of protein N of SARS-CoV Urbani / Binding of serum London to looped/cyclic peptides of protein N of SARS-CoV Urbani / Binding of serum SARS-green to looped/cyclic peptides of protein N of SARS-CoV Urbani: unit not given here
[3] = system: control sera (pooled serum of ten healthy LUMC hospital workers; commercial negative donor pooled serum from the Dutch bloodbank); format: binding, human; design: Binding of Control serum LUMC to linear peptides / Binding of Control serum Blood-bank to linear peptides / Binding of Control serum LUMC to looped peptides / Binding of Control Serum Blood-Bank to Looped peptides / Binding of Control serum LUMC to linear peptides of the protein M of SARS-CoV Urbani / Binding of Control serum Blood-bank to linear peptides of the protein M of SARS-CoV Urbani / Binding of Control serum LUMC to looped peptides of the protein M of SARS-CoV Urbani / Binding of Control Serum Blood-Bank to Looped peptides of the protein M of SARS-CoV Urbani: unit not given here

## CKYTQSTALQELLIQ
[1]
  Binding of a rabbit serum to linear peptides: 0.2
  Binding of a rabbit serum to looped peptides: 0.2
[2]
  Binding of serum 1a to linear peptides of protein X2: 0.7
  Binding of serum 1a to looped/cyclic peptides of protein X2 of SARS-CoV Urbani: 0.6
  Binding of serum 1b to linear peptides of protein X2: 0.5
  Binding of serum 1b to looped/cyclic peptides of protein X2 of SARS-CoV Urbani: 0.6
  Binding of serum 2 to linear peptides of protein X2: 0.5
  Binding of serum 2 to looped/cyclic peptides of protein X2 of SARS-CoV Urbani: 0.5
  Binding of serum 6 to linear peptides of protein X2: 0.4
  Binding of serum 6 to looped/cyclic peptides of protein X2 of SARS-CoV Urbani: 0.4
  Binding of serum 37 to linear peptides of protein X2: 0.7
  Binding of serum 37 to looped/cyclic peptides of protein X2 of SARS-CoV Urbani: 0.3
  Binding of serum 62 to linear peptides of protein X2: 0.7
  Binding of serum 62 to looped/cyclic peptides of protein X2 of SARS-CoV Urbani: 0.4
  Binding of serum London to linear peptides of protein X2: 0.5
  Binding of serum London to looped/cyclic peptides of protein X2 of SARS-CoV Urbani: 0.3
  Binding of serum SARS-green to linear peptides of protein X2: 0.7
  Binding of serum SARS-green to looped/cyclic peptides of protein X2 of SARS-CoV Urbani: 0.4
  Binding of serum SARS-yellow to linear peptides of protein X2: 0.6
  Binding of serum SARS-yellow to looped/cyclic peptides of protein X2 of SARS-CoV Urbani: 0.3
[3]
  Binding of Control Serum Blood-Bank to Looped peptides: 0.4
  Binding of Control serum Blood-bank to linear peptides: 0.6
  Binding of Control serum LUMC to linear peptides: 0.5
  Binding of Control serum LUMC to looped peptides: 0.6

## ADGTRHTYQLRARSV
[1]
  Recognition of the peptide by the rabbit serum: recognized
[2]
  Binding of serum 1a to linear peptides of protein X4 of SARS-CoV Urbani: 0.7
  Binding of serum 1a to looped/cyclic peptides of protein X4 of SARS-CoV Urbani: 0.7
  Binding of serum 1b to linear peptides of protein X4 of SARS-CoV Urbani: 0.6
  Binding of serum 1b to looped/cyclic peptides of protein X4 of SARS-CoV Urbani: 0.4
  Binding of serum 2 to linear peptides of protein X4 of SARS-CoV Urbani: 0.6
  Binding of serum 2 to looped/cyclic peptides of protein X4 of SARS-CoV Urbani: 0.6
  Binding of serum 6 to linear peptides of protein X4 of SARS-CoV Urbani: 0.5
  Binding of serum 6 to looped/cyclic peptides of protein X4 of SARS-CoV Urbani: 0.7
  Binding of serum 37 to linear peptides of protein X4 of SARS-CoV Urbani: 0.7
  Binding of serum 37 to looped/cyclic peptides of protein X4 of SARS-CoV Urbani: 0.7
  Binding of serum 62 to linear peptides of protein X4 of SARS-CoV Urbani: 0.7
  Binding of serum 62 to looped/cyclic peptides of protein X4 of SARS-CoV Urbani: 0.6
  Binding of serum London to linear peptides of protein X4 of SARS-CoV Urbani: 0.7
  Binding of serum London to looped/cyclic peptides of protein X4 of SARS-CoV Urbani: 0.3
  Binding of serum SARS-green to linear peptides of protein X4 of SARS-CoV Urbani: 0.6
  Binding of serum SARS-green to looped/cyclic peptides of protein X4 of SARS-CoV Urbani: 0.5
  Binding of serum SARS-yellow to linear peptides of protein X4 of SARS-CoV Urbani: 0.7
  Binding of serum SARS-yellow to looped/cyclic peptides of protein X4 of SARS-CoV Urbani: 0.6
[3]
  Binding of Control Serum Blood-Bank to Looped peptides: 0.6
  Binding of Control serum Blood-bank to linear peptides: 0.6
  Binding of Control serum LUMC to linear peptides: 0.6
  Binding of Control serum LUMC to looped peptides: 0.6
